Columns and labels:
[1] = tested on: anesthetized rats; experiment: Effect of LTD4 on hemodynamics and ECG parameters in anesthetized rats; assay type: in vivo
Description: Adult male wistar rats (270-300 g) were used. On arrival in the animal care unit, rats were housed with free access to food and water. Room temperature (19-20° C.), relative humidity (55-60%) and light (switched on 7:00am-7:00pm) were maintained constant. An adaptation period of at least 6 days was respected before experimentation.
Aninals (n=3-4) were anesthetized by administration of pentobarbital (50/60 mg/kg, i.v.). Then, animals were placed on a heatcd (36° C.) operating table and ventilated with room air (Harvard respirator, 50-52 str/min, 7 ml/kg tidal volume). Systemic arterial blood pressure was monitored routinely from the left carotid artery (P23XL, Gould). Body temperature was controlled with a thermistor probe (Digi-sense, Cole-Parmer) and maintained within physiological range throughout the experiment by heating when necessary. A Lead 11 ECG was recorded via needle electrodes to evaluate ECG intervals and heart rate and a corrected QT interval by linear regression (QTL) was calculated according to Todt(13). All parameters were monitored on a Gould thermal array polyrecorder.
The volume of injection was normalized to 1 ml/kg. In rats receiving CysLT1 antagonists as pretreatment, the compounds were previously dissolved in ethanol (2% final concentration) or distilled water and mixed in encapsin 6% for intragastric afministration (single dose of 3 μmol/kg-10 ml/kg total volume).
Results were expressed as mean±SEM Hemodynamic and electrocardiographic variables were compared using Anova followed by multiple comparisons tests (Newmam Keuls or Tukey's test as appropriate). Values of p <0.05 were considered significant.

[2] = molecular target: T1, HIPHUM0000007 (Homo sapiens, UniProt Q9NS75); experiment: Antagonist activity against 20 nM LTD4 (NFAT luciferase reporter gene assay and FLIPR assay) at HIPHUM0000007; assay type: cell-based; settings: concentration dependent inhibition of 20 nM LTD4; reporter gene and FLIPR assays
T1 construct: expressed in transfected cells; host or cells: CHO cells with stably integrated NFAT-luciferase reporter (CHONFAT)
T1 sequence (Q9NS75 1-346): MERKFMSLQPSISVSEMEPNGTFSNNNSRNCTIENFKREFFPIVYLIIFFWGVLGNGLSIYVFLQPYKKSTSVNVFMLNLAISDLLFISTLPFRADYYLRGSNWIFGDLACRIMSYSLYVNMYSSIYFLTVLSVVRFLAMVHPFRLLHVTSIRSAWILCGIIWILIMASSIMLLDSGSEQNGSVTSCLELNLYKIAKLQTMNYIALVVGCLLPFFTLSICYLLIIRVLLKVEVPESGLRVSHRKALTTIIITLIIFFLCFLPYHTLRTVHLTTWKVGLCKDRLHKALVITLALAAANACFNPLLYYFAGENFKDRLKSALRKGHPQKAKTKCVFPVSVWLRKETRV

[3] = molecular target: T2, CysLT1 (Homo sapiens, UniProt Q9Y271); experiment: Antagonist activity against 20 nM LTD4 (NFAT luciferase reporter gene assay and FLIPR assay) at CysLT1; assay type: cell-based; settings: concentration dependent inhibition of 20 nM LTD4; reporter gene and FLIPR assays
T2 construct: expressed in transfected cells; host or cells: CHO cells with stably integrated NFAT-luciferase reporter (CHONFAT)
T2 sequence (Q9Y271 1-337): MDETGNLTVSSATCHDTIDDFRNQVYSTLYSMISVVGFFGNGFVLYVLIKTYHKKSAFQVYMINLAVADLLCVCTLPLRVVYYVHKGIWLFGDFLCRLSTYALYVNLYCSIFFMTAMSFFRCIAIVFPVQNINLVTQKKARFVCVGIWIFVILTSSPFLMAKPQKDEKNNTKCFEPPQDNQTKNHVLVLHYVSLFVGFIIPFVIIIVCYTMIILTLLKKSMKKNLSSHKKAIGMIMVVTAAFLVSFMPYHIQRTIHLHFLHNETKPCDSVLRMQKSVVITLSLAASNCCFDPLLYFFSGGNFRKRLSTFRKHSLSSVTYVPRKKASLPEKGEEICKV

With `CN(C)C(=O)CCSC(SCCC(=O)O)c1cccc(/C=C/c2ccc3ccc(Cl)cc3n2)c1` (stereo not drawn) [MK571] the “effect of CysLT1 antagonist on LTD4 response on blood pressure” value ([1]; antagonist 3 μmol/kg oral 10 min or 0.3 μmol/kg i.v. 5 min before LTD4 i.v., anesthetized rats) was “modest partial inhibition” and the “effect of pretreatment on LTD4-induced reduction in heart rate” value ([1]; pretreatment with CysLT1 antagonist before LTD4 i.v., anesthetized rats) was “not significantly altered”.
With `CCCCC/C=C\C\C=C/C=C/C=C/[C@@H](Sc1ccc(C(=O)O)cc1)[C@@H](O)CCCC(=O)O` [BayU9773] the “antagonist activity at HIPHUM0000007” value [2] was “low potency” and the “antagonist activity at CysLT1” value [3] was “low potency”.
With `CCCCC/C=C\C\C=C/C=C/C=C/[C@@H](SC[C@H](N)C(=O)NCC(=O)O)[C@@H](O)CCCC(=O)O` [LTD4] the “effect on blood pressure” value ([1]; LTD4 i.v. injection 20, 40 and 100 nmol/kg, anesthetized rats) was “affected blood pressure in a dose-dependent manner”, the “reduction in heart rate” value ([1]; bolus intravenous administration of LTD4, anesthetized rats) was 20-30% and the “rhythm disturbances (arrhythmias)” value ([1]; repeated administration of LTD4, doses in the range of 40 to 60 nmol/kg, anaesthetised rats) was “induced marked rhythm disturbances”.
In the case of `COc1cc(C(=O)NS(=O)(=O)c2ccccc2C)ccc1Cc1cn(C)c2ccc(NC(=O)OC3CCCC3)cc12` [Zafirlukast], the “antagonist activity at CysLT1” value [3] is reported as “acted as antagonists”.
`CC(C)(O)c1ccccc1CC[C@@H](SCC1(CC(=O)O)CC1)c1cccc(/C=C/c2ccc3ccc(Cl)cc3n2)c1` [Montelukast] was tested, and the “antagonist activity at HIPHUM0000007” value [2] was “inactive”.
